The target in the assay is T1, human osteosarcoma cell line, B10 (Homo sapiens, UniProt Q03431).
T1 construct: analyzed in a human osteosarcoma cell line, B10; endogenous in cells; host or cells: human osteosarcoma cell line B10
T1 sequence (Q03431 27-593): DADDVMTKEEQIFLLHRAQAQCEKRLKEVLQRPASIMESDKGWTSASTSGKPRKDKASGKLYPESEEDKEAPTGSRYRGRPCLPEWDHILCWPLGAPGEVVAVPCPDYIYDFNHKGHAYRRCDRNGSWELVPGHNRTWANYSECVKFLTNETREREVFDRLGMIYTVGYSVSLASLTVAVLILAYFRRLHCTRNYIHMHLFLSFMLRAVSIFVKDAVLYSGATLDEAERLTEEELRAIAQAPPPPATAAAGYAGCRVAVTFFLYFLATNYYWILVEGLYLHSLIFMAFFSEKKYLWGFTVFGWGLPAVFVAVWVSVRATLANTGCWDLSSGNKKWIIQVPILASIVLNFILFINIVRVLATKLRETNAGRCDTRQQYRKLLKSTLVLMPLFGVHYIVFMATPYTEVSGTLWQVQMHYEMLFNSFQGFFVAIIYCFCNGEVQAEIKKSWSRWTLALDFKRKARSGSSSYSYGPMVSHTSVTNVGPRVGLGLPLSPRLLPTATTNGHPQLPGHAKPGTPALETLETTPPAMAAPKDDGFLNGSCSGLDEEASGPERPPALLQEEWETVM
Put plainly: Human bone cell (B10) adenylate cyclase assay. The format is cell-based. The method, then: HCF analogues were analyzed in a human osteosarcoma cell line, B10, for the ability to inhibit cAMP stimulation by 1 nM [Nle^8,18,Tyr^34 ]bPTH(1-34)NH2 by the method described by R. J. Majeska et al., Endocrinol., 107: 1494 (1980).

`CC[C@H](C)[C@H](NC(=O)[C@H](CC(C)C)NC(=O)[C@H](Cc1c[nH]cn1)NC(=O)[C@H](Cc1c[nH]cn1)NC(=O)[C@H](CC(C)C)NC(=O)[C@H](Cc1ccccc1)NC(=O)[C@H](Cc1ccccc1)NC(=O)[C@H](CCCNC(=N)N)NC(=O)[C@H](CCCNC(=N)N)NC(=O)[C@H](CCCNC(=N)N)NC(=O)[C@H](CC(C)C)NC(=O)[C@@H]1CC(=O)NCCCC[C@H](NC(=O)[C@@H](Cc2c[nH]c3ccccc23)NC(=O)[C@H](CC(C)C)NC(=O)[C@H](CC(=O)O)NC(=O)[C@H](Cc2c[nH]cn2)NC(=O)[C@H](CC(C)C)NC(=O)[C@@H](N)CC(C)C)C(=O)N[C@@H](CO)C(=O)N[C@@H]([C@@H](C)CC)C(=O)N[C@@H](CCC(N)=O)C(=O)N1)C(=O)N[C@@H](C)C(=O)N[C@@H](CCC(=O)O)C(=O)N[C@H](C(=O)N[C@@H](Cc1c[nH]cn1)C(=O)N[C@H](C(=O)N[C@@H](C)C(N)=O)[C@@H](C)O)[C@@H](C)CC` displayed a Ki of 3.2 ± 1 nM. Under `CC[C@H](C)[C@H](NC(=O)[C@H](CC(C)C)NC(=O)[C@H](Cc1c[nH]cn1)NC(=O)[C@H](Cc1c[nH]cn1)NC(=O)[C@H](CC(C)C)NC(=O)[C@H](Cc1ccccc1)NC(=O)[C@H](Cc1ccccc1)NC(=O)[C@H](CCCNC(=N)N)NC(=O)[C@H](CCCNC(=N)N)NC(=O)[C@H](CCCNC(=N)N)NC(=O)[C@H](CC(C)C)NC(=O)[C@@H]1CC(=O)NCCCC[C@H](NC(=O)[C@@H](Cc2c[nH]c3ccccc23)NC(=O)[C@H](CC(C)C)NC(=O)[C@H](CC(=O)O)NC(C)=O)C(=O)N[C@@H](CO)C(=O)N[C@@H]([C@@H](C)CC)C(=O)N[C@@H](CCC(N)=O)C(=O)N1)C(=O)N[C@@H](C)C(=O)N[C@@H](CCC(=O)O)C(=O)N[C@H](C(=O)N[C@@H](Cc1c[nH]cn1)C(=O)N[C@H](C(=O)N[C@@H](C)C(N)=O)[C@@H](C)O)[C@@H](C)CC` stands 3.6 ± 0.8 nM.

These data come from patent publication US5149779A, “Humoral hypercalcemic factor antagonists” (Merck & Co., Inc., priority 1990, dated 1992).
